Key:
COLO 205 (Colon cancer) = assay: NCI-60 screen (SRB, 48 h); conditions: Homo sapiens; for GI50: COLO 205; for IC (TGI): COLO 205, 48 h, read-out: TGI
MCF7 (Breast cancer) = assay: NCI-60 screen (SRB, 48 h); conditions: Homo sapiens; for GI50: MCF7; for IC (TGI): MCF7, 48 h, read-out: TGI
Renal Cancer subpanel = assay: NCI-60 screen, subpanel; conditions: Homo sapiens; for IC (TGI): 48 h, read-out: TGI MG_MID; for GI50: read-out: GI50 MG_MID; for CC50: read-out: LC50 MG_MID
RXF 393 (Renal cancer) = assay: NCI-60 screen (SRB, 48 h); conditions: Homo sapiens; for GI50: RXF 393; for IC (TGI): RXF 393, 48 h, read-out: TGI; for CC50: RXF 393, read-out: LC50
Colon Cancer subpanel = assay: NCI-60 screen, subpanel; conditions: Homo sapiens; for IC (TGI): 48 h, read-out: TGI MG_MID; for GI50: read-out: GI50 MG_MID
[1] = tested on: MDA-MB-468 (Breast cancer); assay: cells; conditions: Homo sapiens; for GI50: MDA-MB-468; for IC (TGI): MDA-MB-468, 48 h, read-out: TGI
SK-MEL-5 (Melanoma) = assay: NCI-60 screen (SRB, 48 h); conditions: Homo sapiens; for GI50: SK-MEL-5; for IC (TGI): SK-MEL-5, 48 h, read-out: TGI
CAKI-1 (Renal cancer) = assay: NCI-60 screen (SRB, 48 h); conditions: Homo sapiens; for GI50: CAKI-1; for IC (TGI): CAKI-1, 48 h, read-out: TGI; for CC50: CAKI-1, read-out: LC50
Breast cancer subpanel = assay: NCI-60 screen, subpanel; conditions: Homo sapiens; for IC (TGI): 48 h, read-out: TGI MG_MID; for GI50: read-out: GI50 MG_MID; for CC50: read-out: LC50 MG_MID
Prostate cancer subpanel = assay: NCI-60 screen, subpanel; conditions: Homo sapiens; for IC (TGI): 48 h, read-out: TGI MG_MID; for GI50: read-out: GI50 MG_MID; for CC50: read-out: LC50 MG_MID
SF-295 (CNS cancer) = assay: NCI-60 screen (SRB, 48 h); conditions: Homo sapiens; for GI50: SF-295; for IC (TGI): SF-295, 48 h, read-out: TGI
[2] = tested on: NCI-H322M (NSC lung cancer); assay: NCI-60 screen (SRB, 48 h); conditions: Homo sapiens; for IC (TGI): 48 h, read-out: TGI; for CC50: read-out: LC50
IGROV1 (Ovarian cancer) = assay: NCI-60 screen (SRB, 48 h); conditions: Homo sapiens; for GI50: IGROV-1; for IC (TGI): IGROV-1, 48 h, read-out: TGI
HL-60(TB) (Leukemia) = assay: NCI-60 screen (SRB, 48 h); type: cell-based; conditions: Homo sapiens; for IC (TGI): 48 h
SR (Leukemia) = assay: NCI-60 screen (SRB, 48 h); type: cell-based; conditions: Homo sapiens; for CC50: read-out: LC50 (the source's name)
UO-31 (Renal cancer) = assay: NCI-60 screen (SRB, 48 h); conditions: Homo sapiens; for GI50: UO-31; for IC (TGI): UO-31, 48 h, read-out: TGI; for CC50: UO-31, read-out: LC50
EKVX (NSC lung cancer) = assay: NCI-60 screen (SRB, 48 h); conditions: Homo sapiens; for IC (TGI): 48 h, read-out: TGI
MOLT-4 (Leukemia) = assay: NCI-60 screen (SRB, 48 h); conditions: Homo sapiens; for GI50: MOLT-4
PC-3 (Prostate cancer) = assay: NCI-60 screen (SRB, 48 h); conditions: Homo sapiens; for GI50: PC-3; for IC (TGI): PC-3, 48 h, read-out: TGI
NSC lung cancer subpanel = assay: NCI-60 screen, subpanel; conditions: Homo sapiens; for IC (TGI): 48 h, read-out: TGI MG_MID; for GI50: read-out: GI50 MG_MID; for CC50: read-out: LC50 MG_MID
KM12 (Colon cancer) = assay: NCI-60 screen (SRB, 48 h); conditions: Homo sapiens; for GI50: KM12; for IC (TGI): KM12, 48 h, read-out: TGI
SNB-19 (CNS cancer) = assay: NCI-60 screen (SRB, 48 h); conditions: Homo sapiens; for GI50: SNB-19; for IC (TGI): SNB-19, 48 h, read-out: TGI
BT-549 (Breast cancer) = assay: NCI-60 screen (SRB, 48 h); type: cell-based; conditions: Homo sapiens; for GI50: BT-549; for IC (TGI): BT-549, 48 h
[3] = tested on: NCI-H460 (NSC lung cancer); assay: NCI-60 screen (SRB, 48 h); conditions: Homo sapiens; for GI50: NCI-H460; for IC (TGI): NCI-H460, 48 h, read-out: TGI
OVCAR-3 (Ovarian cancer) = assay: cells; conditions: Homo sapiens; for GI50: OVCAR-3; for IC (TGI): OVCAR-3, 48 h, read-out: TGI

## Cc1ccc(S(=O)(=O)OC[C@]23CCC(C)(C)C[C@H]2C2=CC[C@@H]4[C@@]5(C)CCCNC(C)(C)[C@@H]5CC[C@@]4(C)[C@]2(C)CC3)cc1 [Compound 15]
COLO 205 (Colon cancer)
  GI50: 1.63 µM
  IC (TGI): 3.19 µM
MCF7 (Breast cancer)
  GI50: 1.62 µM
  IC (TGI): 3.38 µM
Renal Cancer subpanel
  IC (TGI): 5.44 µM
  GI50: 2.13 µM
  CC50: 14.3 µM
RXF 393 (Renal cancer)
  GI50: 1.38 µM
  IC (TGI): 2.78 µM
  CC50: 5.59 µM
Colon Cancer subpanel
  IC (TGI): 3.25 µM
  GI50: 1.7 µM
[1]
  GI50: 1.56 µM
  IC (TGI): 3.13 µM
SK-MEL-5 (Melanoma)
  GI50: 1.9 µM
  IC (TGI): 3.68 µM
CAKI-1 (Renal cancer)
  GI50: 1.45 µM
  IC (TGI): 2.82 µM
  CC50: 5.46 µM
Breast cancer subpanel
  IC (TGI): 3.63 µM
  GI50: 1.75 µM
  CC50: 9.14 µM
Prostate cancer subpanel
  IC (TGI): 3.27 µM
  GI50: 1.72 µM
  CC50: 6.35 µM
SF-295 (CNS cancer)
  GI50: 1.71 µM
  IC (TGI): 3.3 µM
[2]
  GI50: 14.9 µM
  IC (TGI): 4.05 µM
  CC50: > 100 µM
IGROV1 (Ovarian cancer)
  GI50: 1.41 µM
  IC (TGI): 3.08 µM
HL-60(TB) (Leukemia)
  GI50: 1.85 µM
  IC (TGI): 4.06 µM
SR (Leukemia)
  GI50: 0.34 µM
  CC50: > 100 µM
UO-31 (Renal cancer)
  GI50: 1.29 µM
  IC (TGI): 2.68 µM
  CC50: 5.58 µM
EKVX (NSC lung cancer)
  GI50: 1.48 µM
  IC (TGI): 2.96 µM
MOLT-4 (Leukemia)
  GI50: 1.55 µM
MOLT-4 (Leukemia); MOLT-4, read-out: LC50
  CC50: > 100 µM
PC-3 (Prostate cancer)
  GI50: 1.66 µM
  IC (TGI): 3.16 µM
NSC lung cancer subpanel
  IC (TGI): 3.42 µM
  GI50: 3.14 µM
  CC50: 53.4 µM
KM12 (Colon cancer)
  GI50: 1.82 µM
  IC (TGI): 3.33 µM
SNB-19 (CNS cancer)
  GI50: 1.72 µM
  IC (TGI): 3.54 µM
BT-549 (Breast cancer)
  GI50: 1.9 µM
  IC (TGI): 3.78 µM
[3]
  GI50: 1.77 µM
  IC (TGI): 3.37 µM
OVCAR-3 (Ovarian cancer)
  GI50: 1.84 µM
  IC (TGI): 3.51 µM

## Cc1ccc(S(=O)(=O)OC[C@@]2(C)CC[C@]3(C)CC[C@]4(C)C(=C3C2)C=C[C@@H]2[C@@]3(C)CCCNC(C)(C)[C@@H]3CC[C@]24C)cc1 [Compound 16]
COLO 205 (Colon cancer)
  GI50: 1.62 µM
  IC (TGI): 3.26 µM
MCF7 (Breast cancer)
  GI50: 1.51 µM
  IC (TGI): 3.18 µM
Renal Cancer subpanel
  IC (TGI): 3.19 µM
  GI50: 1.67 µM
  CC50: 5.92 µM
RXF 393 (Renal cancer)
  GI50: 1.35 µM
  IC (TGI): 2.86 µM
  CC50: 6.05 µM
Colon Cancer subpanel
  IC (TGI): 3.3 µM
  GI50: 1.64 µM
Colon Cancer subpanel; read-out: LC50 MG_MID
  CC50: 6.94 µM
[1]
  GI50: 1.59 µM
  IC (TGI): 3.22 µM
[1]; MDA-MB-468, read-out: LC50
  CC50: 6.51 µM
SK-MEL-5 (Melanoma)
  GI50: 1.82 µM
  IC (TGI): 3.39 µM
CAKI-1 (Renal cancer)
  GI50: 1.61 µM
  IC (TGI): 3.06 µM
  CC50: 5.81 µM
Breast cancer subpanel
  IC (TGI): 3.5 µM
  GI50: 1.67 µM
  CC50: 7.57 µM
Prostate cancer subpanel
  IC (TGI): 3.19 µM
  GI50: 1.67 µM
  CC50: 6.1 µM
SF-295 (CNS cancer)
  GI50: 1.78 µM
  IC (TGI): 3.29 µM
SF-295 (CNS cancer); SF-295, read-out: LC50
  CC50: 6.08 µM
[2]
  GI50: 1.62 µM
  IC (TGI): 3.01 µM
  CC50: 5.62 µM
IGROV1 (Ovarian cancer)
  GI50: 1.79 µM
  IC (TGI): 3.43 µM
HL-60(TB) (Leukemia)
  GI50: 1.98 µM
  IC (TGI): 4.02 µM
SR (Leukemia)
  GI50: 0.31 µM
  CC50: > 100 µM
UO-31 (Renal cancer)
  GI50: 1.46 µM
  IC (TGI): 2.85 µM
  CC50: 5.59 µM
EKVX (NSC lung cancer)
  GI50: 1.7 µM
  IC (TGI): 3.29 µM
EKVX (NSC lung cancer); read-out: LC50
  CC50: 6.35 µM
MOLT-4 (Leukemia)
  GI50: 1.84 µM
MOLT-4 (Leukemia); MOLT-4, 48 h, read-out: TGI
  IC (TGI): 4.16 µM
PC-3 (Prostate cancer)
  GI50: 1.53 µM
  IC (TGI): 2.98 µM
PC-3 (Prostate cancer); PC-3, read-out: LC50
  CC50: 5.82 µM
NSC lung cancer subpanel
  IC (TGI): 3.36 µM
  GI50: 1.72 µM
  CC50: 6.23 µM
KM12 (Colon cancer)
  GI50: 1.86 µM
  IC (TGI): 3.57 µM
KM12 (Colon cancer); KM12, read-out: LC50
  CC50: 6.85 µM
SNB-19 (CNS cancer)
  GI50: 1.91 µM
  IC (TGI): 3.62 µM
BT-549 (Breast cancer)
  GI50: 1.48 µM
  IC (TGI): 3.14 µM
[3]
  GI50: 1.85 µM
  IC (TGI): 3.5 µM
OVCAR-3 (Ovarian cancer)
  GI50: 1.88 µM
  IC (TGI): 3.56 µM
